Among the data in PubChem BioAssay AID179 (DTP/NCI, 2004) are EC50, IC50 and outcome values, retold here.

Where “and” joins values, the source holds several entries; their conditions need not be identical. Identical values can stand only once. Calls of active or inactive are those of the source.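 How the source made its calls: active means compounds giving half or more protection of infected cells from virus-caused growth loss, again on retest; inactive means the rest.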

As usually defined, the EC50 is the concentration that produces a half-maximal response. Usually IC50 stands for the concentration at which inhibition is half-maximal. The low end stands for greater potency in that assay, the high end for weaker potency in that assay.

This assay deals with CEM cells HIV-1 protection, formazan growth assay. Description: NCI AIDS Antiviral Assay. The note with it: for IC50: measured here: growth of uninfected CEM cells. The method in brief:
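Human CEM cells, uninfected and HIV-1-infected, received five drug concentrations, and growth was read by soluble formazan assay. Compounds giving at least 50% protection were retested; reproducible 100% protection defined confirmed active.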

Consider `CCOC(=O)Cc1csc2[n+]1C(=O)/C(=C/c1ccc(OC)c(OC)c1)S2`, for which the EC50 was greater than 200 µM and the 50% inhibitory concentration (IC50) turned out to be 20 µM.

Regarding `CC(=O)N=C1N(/C=C2\C(=O)Oc3ccccc3C2=O)C(=O)/C(=C/c2ccccc2Cl)N1C`, the EC50 was greater than 200 µM and the half-inhibitory concentration (IC50) was 148 µM.

As to `CC(C)=CCSC1CC2C(CC1(C)O)C2(C)C` (stereo not drawn), the EC50 is greater than 200 µM; the half-maximal inhibitory concentration (IC50) was 110 µM and 112 µM.

As for `Cc1ccc(N2C(=O)/C(=C3\Sc4c(nc(C)[nH]c4=O)N3c3ccccc3)SC2=S)cc1`, the EC50 is greater than 4.07 µM and the concentration for half-maximal inhibition (IC50) was greater than 4.07 µM.

With `O=C1c2ccccc2C(=O)c2c1ccc1c3ccccc3n(-c3ccccc3)c21`, the EC50 was greater than 50.1 µM and the IC50 came to 0.871 µM.

Take `C=CC(C)(C)n1cc(C2=C(O)C(=O)C(c3cn(C(C)(C)C=C)c4ccccc34)=C(O)C2=O)c2ccccc21`: the EC50 is greater than 22.4 µM and the half-inhibitory concentration (IC50) was 12.3 µM.

Take `O=C(O)c1ccc2c(c1)C(=O)N(c1ccc(S(=O)(=O)c3ccc(N4C(=O)c5ccc(C(=O)O)cc5C4=O)cc3)cc1)C2=O`: the outcome was inactive.

In the case of `CCOC(=O)c1c(OC)cc2n(c1=O)Cc1cc3ccccc3nc1-2`, the EC50 is greater than 10 µM and the IC50 was greater than 10 µM.

As to `O=C1NC(=O)C(=Nc2cccc3c(=O)[nH][nH]c(=O)c23)C(c2nc3ccccc3s2)C1=O` (stereo not drawn), the result was inactive.

Regarding `O=C(O)CSCc1cc2c(O)c(c1)Cc1cc(CSCC(=O)O)cc(c1O)Cc1cc(CSCC(=O)O)cc(c1O)Cc1cc(CSCC(=O)O)cc(c1O)C2`, the EC50 was greater than 22.4 µM and the IC50 was greater than 22.4 µM.

Consider `COC(=O)Nc1cn2ccc(Sc3ccccc3)cc2n1`, for which the EC50 is greater than 45.7 µM and the IC50 came out at 0.776 µM.

Turning to `COc1cc(/C=C/C(=O)OC[C@H](Br)[C@H](OC(C)=O)c2ccc3c(c2)OCO3)cc(OC)c1OC`, the EC50 was greater than 200 µM and the half-maximal inhibitory concentration (IC50) stood at 47.9 µM.

Consider `CC(C)N=C(NC#N)NS(=O)(=O)c1cnccc1NC1CCCCCCC1`, for which the EC50 was greater than 200 µM and the concentration for half-maximal inhibition (IC50) was greater than 200 µM.

Turning to `CCCCNC(=O)c1cc(NC(=O)c2ccc(C(=O)Nc3cc(C(=O)NCCCC)cc(C4N=CCN4)c3)cc2)cc(C2=NCCN2)c1` (stereo not drawn), the EC50 was 13.2 µM and the IC50 was greater than 100 µM.

For the molecule `CC(=O)OC1CC2C(=O)CC1(C)C2(C)C` (stereo not drawn), the EC50 was greater than 200 µM and the IC50 was greater than 200 µM.

As for `O=[N+]([O-])c1ccc(OCc2nnc(CCCCCCCCc3nnc(COc4ccc([N+](=O)[O-])cc4)o3)o2)cc1`, the EC50 is greater than 200 µM and the IC50 was greater than 200 µM.

In the case of `C[C@]12CC[C@@H]3c4cc(OCC(F)(F)F)c(O)cc4CC[C@H]3[C@@H]1CC[C@@H]2O`, the EC50 was greater than 0.2 µM and the IC50 was 0.0676 µM.

With `S=C1SC(=Nc2ccccc2)C(=Nc2ccccc2)N1c1ccccc1`, the EC50 is greater than 200 µM and the IC50 is 91.2 µM.

`CN(C)Cc1cc(N=Nc2ccc(Cl)cc2)ccc1O`: the EC50 was greater than 20 µM and the half-inhibitory concentration (IC50) stood at 13.5 µM.

In the case of `COc1ccccc1C1OC(c2ccccc2OC)C2CCN(C)C2(C)O1` (stereo not drawn), the EC50 is greater than 200 µM and the IC50 was greater than 200 µM.

With `CCCC(=O)NC(Nc1ccc(S(=O)(=O)Nc2cc(C)on2)cc1)(C(=O)OCC)C(F)(F)F` (stereo not drawn), the result was inactive.

With `COc1ccccc1NC(=O)/C(Cc1nc2ccc([N+](=O)[O-])cc2[nH]c1=O)=N\NC(=O)C[N+](C)(C)C`, the EC50 is greater than 245 µM and the IC50 is 50.1 µM.

On to `O=C1OCC(C2CCCCC2)C(Br)=C1Br` (stereo not drawn), for which the EC50 is greater than 200 µM and the IC50 is 56.2 µM.

With `CCOC(=O)Cc1nc2sc(S(N)(=O)=O)nn2c1Br`, the EC50 was greater than 200 µM and the IC50 turned out to be 10 µM.

As to `COc1ccc2c(c1)C(O)C(CO)C(C(=O)O)C2` (stereo not drawn), the EC50 was greater than 200 µM and the 50% inhibitory concentration (IC50) is greater than 200 µM.

Turning to `CCN(CCN1C(=O)C2CCCCC2C1=O)c1ccc(N=O)c(C)c1` (stereo not drawn), the EC50 is greater than 200 µM and the IC50 came to 1.78 µM.

As to `O=S(CCCl)c1c2ccccc2nc2ccccc12` (stereo not drawn), the EC50 is greater than 200 µM and the IC50 came out at 30.9 µM.

Turning to `C(COC1CC2CC1C1CC3OC3C21)OCCOC1CC2CC1C1CC3OC3C21` (stereo not drawn), the EC50 was greater than 200 µM and the IC50 stood at 77.6 µM.

Regarding `COC1/C=C/OC2(C)Oc3c(C)c(O)c4c(O)c(cc(OCC(=O)N(C)C(C)C)c4c3C2=O)NC(=O)/C(C)=C/C=C/C(C)C(O)C(C)C(O)C(C)C(OC(C)=O)C1C` (stereo not drawn), the EC50 is greater than 200 µM and the IC50 turned out to be 38 µM.

Regarding `O=c1c2ccccc2nc(-c2ccc(Br)cc2)n1NC1OC(CO)C(O)C(O)C1O` (stereo not drawn), the outcome was inactive.

For the molecule `Cc1cc2oc(=N)c(C#N)c(C)c2cc1C`, the EC50 is greater than 200 µM and the IC50 is 43.7 µM.

`CN(c1ccc(Cl)cc1)S(=O)(=O)c1ccccc1[N+](=O)[O-]`: the EC50 is greater than 200 µM and the IC50 worked out at 24.5 µM.

Consider `Cc1ccc(S(=O)(=O)SCC(=O)c2ccc([N+](=O)[O-])cc2)cc1`, for which the result was inactive and the IC50 was determined as 102 µM.

Turning to `COc1cccc(C2C(C(=O)Nc3cc(=O)n(C)c(=O)n3C)=C(C)NC(C)=C2C(=O)Nc2cc(=O)n(C)c(=O)n2C)c1O`, the EC50 is greater than 219 µM and the 50% inhibitory concentration (IC50) amounted to 74.1 µM.

For `O=C1OCC(C(=O)c2cccc(O)c2)C1=O` (stereo not drawn), the result was inactive.

As for `CC(=O)NNC(=S)/N=C/C(C(=O)Nc1ccc([N+](=O)[O-])cc1)=C(\C)O`, the EC50 was 117 µM and the concentration for half-maximal inhibition (IC50) was 170 µM.

Turning to `O=c1n(C2CCCCC2)c(=C(Cl)Cl)c(=C(Cl)Cl)n1C1CCCCC1`, the EC50 was greater than 200 µM and the concentration for half-maximal inhibition (IC50) is greater than 200 µM.

For `O=[N+]([O-])/C=C/c1cc2ccccc2[nH]1`, the EC50 is greater than 200 µM and the IC50 was determined as 6.31 µM.

Consider `CC1(/C=C/CCSc2ccccc2)CC(=O)C2CC1C2(C)C` (stereo not drawn), for which the EC50 is greater than 200 µM and the IC50 came to 7.94 µM.

Turning to `Oc1c(Cl)cc(Cl)c2cccnc12`, the result was inactive.

For `CN(C)C(=S)OC(Cn1cncn1)c1ccc(Cl)cc1Cl` (stereo not drawn), the EC50 was greater than 513 µM and the concentration for half-maximal inhibition (IC50) was found to be 427 µM.

Turning to `COc1c(C(=O)c2cc(Cl)cc(S(=O)(=O)N(C)C=O)c2OC)cc(Cl)cc1S(=O)(=O)N(C)C=O`, the EC50 is greater than 46.8 µM and the half-maximal inhibitory concentration (IC50) was greater than 46.8 µM.

As for `CC1(C)C=Cc2c(cc3oc4ccc5c(c4c(=O)c3c2O)C=CC(C)(C)O5)O1`, the EC50 was 36.3 µM and the concentration for half-maximal inhibition (IC50) was determined as 50.1 µM.

`COc1nc2c(c(O)c(C)c(=O)n2OC2OCC(OC(C)=O)C(OC(C)=O)C2OC(C)=O)c(=O)n1C` (stereo not drawn): the EC50 was greater than 132 µM and the IC50 was greater than 132 µM.

As for `CN(/N=C/C=N/N(C)C1=NCCN1)C1=NCCN1`, the EC50 was greater than 200 µM and the IC50 was greater than 200 µM.

With `Clc1ccc(CNCCCNCc2ccc(Cl)cc2Cl)c(Cl)c1`, the EC50 was greater than 200 µM and the IC50 was 22.4 µM.

For `COc1cc(CNC(=S)CCCCCCCCCCC(C)C)ccc1O`, the result was inactive.

Consider `CC(C)=O.O=C([O-])C(F)(F)F.O=C([O-])C(F)(F)F.O=C([O-])C(F)(F)F.O=C([O-])C(F)(F)F.[Rh+2].[Rh+2]`, for which the EC50 is greater than 200 µM and the IC50 was greater than 200 µM.

As for `Clc1cc2nc[nH]c2cc1Cl`, the EC50 is greater than 269 µM and the IC50 was 141 µM.

In the case of `O=[N+]([O-])c1cccc2nc3ccccc3c(NCCC[N+]3([O-])CCOCC3)c12`, the EC50 is greater than 2 µM and the IC50 was found to be 0.105 µM.

For the molecule `Cc1nn(C(=O)c2ccncc2)c2c1C(c1ccc(Cl)cc1)SC(N)=N2` (stereo not drawn), the EC50 is greater than 200 µM and the IC50 was 30.9 µM.

Turning to `CC[C@H]1CN2CCc3c([nH]c4ccccc34)C2C[C@@H]1CCO` (stereo partly drawn), the EC50 was greater than 120 µM and the IC50 is greater than 120 µM.

Turning to `NC(=O)c1cc(-c2ccc(-n3ccnc3)cc2)n[nH]c1=O`, the EC50 was greater than 200 µM and the IC50 is 155 µM.

`CCN(CC)CCCC(C)Nc1c(Sc2cnc3cc(Cl)ccc3c2NC(C)CCCN(CC)CC)cnc2cc(Cl)ccc12` (stereo not drawn): the EC50 is greater than 309 µM and the half-maximal inhibitory concentration (IC50) was determined as 1.7 µM.

As to `Cc1cc(Br)ccc1Nc1nc(N)nc(N)c1N=O`, the EC50 is greater than 200 µM and the IC50 was 51.3 µM.

Take `O=C(/C=C/c1ccc(Cl)c(Cl)c1)CCN1CCN(CCC(=O)/C=C/c2ccc(Cl)c(Cl)c2)CC1`: the EC50 is greater than 200 µM and the IC50 turned out to be 1.91 µM.

On to `CC1=NN(C(=O)CC(=O)Nc2ccccc2C)C(=O)C1N=Nc1ccc(S(=O)(=O)c2ccc(N=NC3C(=O)N(C(=O)CC(=O)Nc4ccccc4C)N=C3C)cc2)cc1` (stereo not drawn), for which the EC50 was greater than 50.1 µM and the IC50 is greater than 50.1 µM.

For `CC(=O)Oc1ccn2nc(C)c(Cc3c(C)nn4ccc(OC(C)=O)cc34)c2c1`, the EC50 was greater than 200 µM and the IC50 worked out at 28.2 µM.

As for `CCOC(=O)C(=O)Cc1cnc2ccccc2n1`, the EC50 was greater than 53.7 µM and the IC50 is greater than 53.7 µM.

As for `O=[N+]([O-])c1ccc2cnn(CN3CCCCC3)c2c1`, the EC50 was greater than 200 µM and the IC50 came out at 89.1 µM.

`Cc1ccc(CC[P+](=O)CCc2ccc(C)nc2)cn1`: the EC50 was greater than 200 µM and the half-inhibitory concentration (IC50) was greater than 200 µM.

In the case of `CCCN(CCC)CCCOC(=O)c1ccc2oc3ccc(C(=O)OCCCN(CCC)CCC)cc3c2c1`, the EC50 was greater than 112 µM and the half-inhibitory concentration (IC50) was 6.61 µM.

As to `O=C(O)c1ccc(CSc2ccc(Cl)cc2)cc1`, the EC50 was greater than 35.5 µM and the 50% inhibitory concentration (IC50) is greater than 35.5 µM.

Consider `CC(=O)Nc1ccc(S(=O)(=O)N/N=C/c2cc(I)cc([N+](=O)[O-])c2O)cc1`, for which the EC50 is greater than 501 µM and the IC50 turned out to be 79.4 µM.

On to `CCN=C(CC(=O)C12CC3CC(CC(C3)C1)C2)N(CC)CC`, for which the result was inactive.

Consider `N#Cc1c(-c2ccco2)cc(-c2ccc(NCc3nc4ccccc4[nH]3)cc2)nc1N`, for which the EC50 was greater than 12.9 µM and the half-maximal inhibitory concentration (IC50) was greater than 12.9 µM.

On to `CC(C)(C)OC(=O)N1CCC(NC(=O)NC2CCN(C(=O)OC(C)(C)C)CC2)CC1`, for which the EC50 is greater than 200 µM and the IC50 was greater than 200 µM.

For the molecule `CC(C)(C)c1cc(C(O)(C(F)(F)F)C(F)(F)F)c(S)c(C(O)(C(F)(F)F)C(F)(F)F)c1`, the EC50 is greater than 200 µM and the half-maximal inhibitory concentration (IC50) worked out at 3.47 µM.
